Key:
eEF2K [1] = target: T1, eEF2K (Homo sapiens, UniProt O00418); test: Western blot of p-EF2 (Thr56) for eEF2K inhibition in MDA-MB-231 cells; format: cell-based; conditions: for eEF2K inhibition potential: MDA-MB-231 (TNBC) cells, 2.5 to 20 micromolar
T1 sequence (O00418 1-725): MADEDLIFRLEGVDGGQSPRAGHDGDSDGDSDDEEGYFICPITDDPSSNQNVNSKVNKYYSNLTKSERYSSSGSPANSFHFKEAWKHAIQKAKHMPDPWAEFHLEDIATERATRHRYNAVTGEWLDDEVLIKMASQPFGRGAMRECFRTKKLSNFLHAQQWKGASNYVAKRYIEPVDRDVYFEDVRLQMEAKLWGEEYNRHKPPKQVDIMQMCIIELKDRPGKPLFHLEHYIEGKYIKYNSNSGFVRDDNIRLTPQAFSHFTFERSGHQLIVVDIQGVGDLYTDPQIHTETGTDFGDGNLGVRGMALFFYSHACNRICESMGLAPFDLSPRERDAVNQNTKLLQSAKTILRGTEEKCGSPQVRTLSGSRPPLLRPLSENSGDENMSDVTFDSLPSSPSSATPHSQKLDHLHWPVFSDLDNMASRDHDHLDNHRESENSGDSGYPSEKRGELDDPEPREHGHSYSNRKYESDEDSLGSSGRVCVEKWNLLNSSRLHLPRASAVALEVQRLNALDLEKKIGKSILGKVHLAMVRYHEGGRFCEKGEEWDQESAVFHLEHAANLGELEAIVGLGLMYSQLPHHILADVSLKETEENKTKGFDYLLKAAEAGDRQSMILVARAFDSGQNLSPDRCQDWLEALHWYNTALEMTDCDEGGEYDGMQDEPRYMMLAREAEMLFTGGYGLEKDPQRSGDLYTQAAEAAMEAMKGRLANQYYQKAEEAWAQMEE
Protocol: MeOH: distilled water by volume (%) (70:30) was used as the mobile phase for HPLC analysis for the inventive compound and the flow rate was set to 1 mL min^-1. Triple negative breast cancer (TNBC) cell lines (ER-, PR- and HER2-) MDA-MB-231 cells were purchased from the American Type Culture Collection (ATCC) (Manassas, VA, USA). MDA-MB-231 cells were cultured in Dulbecco's modified Eagle's medium (DMEM)/F12 supplemented with 10% FBS (Fetal Bovine Serum) and 100 U mL^-1 penicillin and streptomycin. Specific antibodies (p-EF2 (Thr56) (2331S), eEF2 (2332S), eEF2K (3692S) and GAPDH (5174S)) were purchased from Cell Signaling Technology (CST).
Western blot analysis was carried out according to previously reported studies to evaluate the eEF2K inhibition activity for the synthesized compounds. The synthesized compound was applied to MDA-MB-231 cells in the range of various concentrations from 2.5 to 20 micromolar for 2 h treatment. The expression levels of p-EF2 (Thr56) inhibition and eEF2K activity were determined by using related antibodies such as p-EF2 (Thr56), eEF2 and eEF2K. Glyceraldehyde 3-phosphate dehydrogenase (GAPDH) was used as a loading control.
To determine the effects of the synthesized compounds in inhibiting eEF2K activity in TNBC, MDA-MB-231 cells, we performed western blot analysis at concentrations ranging from 2.5 micromolar to 20 micromolar in a dose-dependent manner. eEF2K inhibition was detected by decreased phosphorylation levels of EF2 (p-EF2-Thr-56), a direct downstream substrate of the enzyme.

cancer cells = conditions: literature; very high doses; cited from earlier work
eEF2K [2] = target: T1, eEF2K; conditions: literature, cited from earlier work
other protein kinases = conditions: literature; cited from earlier work

CCc1cccc2c3c([nH]c12)C(CC)(CC(=O)O)OCC3 (racemic) [Etodolac, (R,S)-2-[1,8-diethyl-1,3,4-tetrahydropyrano[3,4-b]indol-1-yl] acetic acid]
eEF2K inhibition potential (eEF2K [1]; western blot): did not show any inhibition potential

CCn1c(=O)c2cc(C(N)=O)c(N)nc2n(C2CC2)c1=O [A484954]
Dose showing inhibition effect in cancer cells (cancer cells): 75 µM

CCc1cccc2c3c([nH]c12)C(CC)(CC(=O)NCCN1CCCCC1)OCC3 (stereo not shown) [Inventive compound, 2-(1,8-Diethyl-1,3,4,9-tetrahydropyrano[3,4-b]indol-1-yl)-N-(2-(piperidin-1-yl)ethyl)acetamide]
eEF2K inhibition potential (eEF2K [1]; western blot): high inhibition potential
phospho-eEF2 (Thr56) inhibition (eEF2K [1]; MDA-MB-231 cells, 2.5 and 5 micromolar, 2 h treatment): highest phospho-eEF2 (Thr56) inhibition
eEF2K inhibition (reduced levels of p-EF2) (eEF2K [1]; MDA-MB-231 cells, 2.5 micromolar, compared to etodolac (EC), western blot): marked inhibition of eEF2K

CCCCCCCCCCCCCCCCn1cc[n+](Cc2ccccc2)c1C.[I-] [NH125]
eEF2K inhibition (in words) (eEF2K [2]): does not inhibit EF2K but rather increases eEF2 phosphorylation

Cc1cc(C=C2C(=O)C=CC2=O)cc(C)c1O [TX1918]
eEF2K inhibition (in words) (eEF2K [2]): did not show significant eEF2K inhibition
Concentration reported to inhibit eEF2K (eEF2K [2]; concentrations as high as): 10 µM
Activity against other kinases (specificity) (other protein kinases): inhibitory activity against five different kinases

CC(=O)c1c(O)c(C)c(O)c(Cc2c(O)c3c(c(C(=O)/C=C/c4ccccc4)c2O)OC(C)(C)C=C3)c1O [rottlerin]
Activity against other kinases (specificity) (other protein kinases): inhibits various other protein kinases at concentrations lower than those required for inhibition of eEF2K

Source: US20260022126A1, “2-(L,8-DIETHYL-1,3,4,9-TETRAHYDROPYRANO[3,4-B]INDOL-1-YL)-N-(2-(PIPERIDIN-1 YL)ETHYL)ACETAMIDE ETODOLAC DERIVATIVE AS A EUKARYOTIC ELONGATION FACTOR 2 KINASE (EEF2K) INHIBITOR FOR TARGETED CANCER THERAPY” (BAHCESEHIR UNIVERSITESI, priority 2023, published 2026)
